Where “and” joins values, the source holds several entries; their conditions need not be identical. Equal entries are not always repeated.
Columns and labels:
Format in all cases: functional, Homo sapiens
Parameters in all cases: dose or concentration left out as unconfirmed
[1] = test system: Colon cancer organoid; experiment: (§1) Image-based profiling of donated chemical probes and chemogenomic kinase set in O06 CRC organoid. Image analysis is performed on the sum area metric, and the data were normalized to the DMSO control. After imaging the organoid viability is measured using the OneGloEX Luciferase Assay System. The normalized viability data and sum area are reported.
[2] = test system: Colon cancer organoid; experiment: as §1, with “O21” for “O06”
[3] = test system: Colon cancer organoid; experiment: as §1, with “O09” for “O06”

Row | Compound | Cell Viability ([1]; Replication number 1) | Cell Viability ([1]; Replication number 2) | Cell Viability ([2]; Replication number 1) | Cell Viability ([2]; Replication number 2) | Cell Viability ([3]; Replication number 1) | Cell Viability ([3]; Replication number 2)
1 | COc1cc(C#N)ccc1S(=O)(=O)Nc1ccc2c(c1)cc(C)c(=O)n2C | 109.695% and 120.805% | 114.995% and 99.8938% | 105.091% and 139.321% | 90.295% and 90.2148% | 120.569% and 113.833% | 161.546% and 95.5021%
2 | COc1cc(Nc2nccc(-c3cnn4nc(OC)ccc34)n2)cc(C(F)(F)F)c1 | 24.0396% and 55.0969% | 25.0029% and 51.7745% | 43.8285% and 81.0407% | 69.763% and 98.0422% | 18.7716% and 22.0247% | 18.9351% and 21.2081%
3 | O=C(O)c1ccc2c(c1)nc(Nc1cccc(Cl)c1)c1ccncc12 [SILMITASERTIB] | 95.4776% and 72.7779% | 97.8% and 96.4524% | 103.567% and 112.056% | 102.008% and 128.967% | 75.9271% and 48.6208% | 96.2856% and 65.3282%
4 | C[C@@H](c1cccc(CN)c1)n1cc(Cl)cc(C(N)=O)c1=N.Cl | 106.874% and 116.842% | 95.2274% and 108.361% | 113.852% and 117.315% | 85.2053% and 83.6166% | 102.95% and 110.479% | 109.454% and 89.4132%
5 | Cc1cc(CN)cc(C)c1-c1ncn(C)c1-c1cncn1C | 108.725% and 89.8792% | 171.9% and 107.541% | 118.759% and 94.0562% | 98.6287% and 80.0119% | 189.71% and 98.9954% | 198.722% and 106.905%
6 | CNC(=O)c1ccc(Nc2ncc(C(F)(F)F)c(NCc3nccnc3N(C)S(C)(=O)=O)n2)cc1 [DEFACTINIB] | 124.45% and 120.141% | 102.609% and 90.0207% | 89.1869% and 86.74% | 98.5669% and 117.347% | 29.7376% and 36.5543% | 24.312% and 22.1979%
7 | Cl.O=C([C@@H](Cc1cccc(C(F)(F)F)c1)NS(=O)(=O)c1cc(F)c2c(c1)CCNC2)N1CCCC1 | 106.357% and 105.584% | 187.159% and 130.005% | 76.7615% and 83.4749% | 81.6272% and 85.3819% | 80.2483% and 102.241% | 101.188% and 101.204%
8 | Cc1noc(C)c1-c1cnc2c(-c3ccc(C(=O)O)cc3)cn([C@@H](C)c3ccccn3)c2c1 [PLX-51107] | 28.5018% and 57.9866% | 31.105% and 59.0281% | 101.544% and 130.503% | 74.8766% and 126.73% | 42.9449% and 37.558% | 38.2971% and 35.6351%
9 | C[C@H](c1ccc(F)cc1)N(Cc1ccc(Cl)c(C(=O)O)c1)C(=O)c1cnc2ccccc2c1 [PF-05257137] | 112.636% and 114.286% | 58.4583% and 44.0628% | 104.015% and 83.2471% | 99.7446% and 91.3265% | 171.765% and 153.146% | 140.713% and 101.643%
10 | Cc1nc(N2CC[C@H](O)C2)ncc1-c1cc(C(F)(F)F)cc2[nH]ncc12 | 99.241% and 111.944% | 84.0147% and 88.1256% | 102.375% and 86.1578% | 90.0065% and 80.6122% | 63.142% and 75.4977% | 55.6466% and 44.9799%
11 | Cc1nnc2c3ccccc3c(N[C@@H](C)[C@H](c3ccccc3)N(C)C)nn12 | 129.952% and 136.027% | 163.32% and 118.295% | 132.945% and 134.618% | 79.559% and 84.8449% | 148.648% and 110.587% | 133.595% and 98.3529%
12 | CCOC(=O)CCNc1cc(N2CCc3ccccc3CC2)nc(-c2cccnc2)n1 | 133.48% and 94.953% | 206.72% and 136.936% | 67.1414% and 86.4141% | 103.603% and 97.7327% | 137.493% and 102.473% | 150.843% and 118.309%
13 | O=C(NCCCN1CCOC1=O)c1cnc(NCc2cc(Br)ccc2Br)nc1NC1CCCC1 | 128.504% and 125.145% | 109.486% and 115.731% | 88.4413% and 90.6749% | 101.16% and 88.408% | 172.879% and 128.436% | 143.806% and 111.114%
14 | Cc1cc2c(-c3ccco3)cnc(N[C@@H]3CCN(C)C[C@H]3C(=O)NC3CCCCC3)c2[nH]c1=O [GSK789] | 45.8732% and 77.9757% | 46.7874% and 82.8928% | 106.004% and 111.859% | 101.857% and 104.521% | 34.6914% and 67.3378% | 49.9263% and 76.5266%
15 | Cc1c(NC(=O)c2cc(C(N)=O)nc3cc(F)ccc23)c(C(F)(F)F)nn1Cc1ccc(C#N)cc1 [BAY-876] | 10.662% and 26.9321% | 13.3809% and 14.2138% | 21.7392% and 19.9094% | 22.1552% and 34.1837% | 36.4456% and 33.4484% | 36.255% and 13.5816%
16 | CC[C@H](CO)Nc1nc(NCc2ccccc2)c2ncn(C(C)C)c2n1 [SELICICLIB] | 146.934% and 137.321% | 92.4206% and 95.8355% | 79.2225% and 95.8885% | 112.922% and 92.6952% | 133.303% and 96.4937% | 129.12% and 84.4947%
17 | CN([C@@H]1CCc2c(CC(=O)O)c3ccccc3n2C1)S(=O)(=O)c1ccc(F)cc1 [MK-7246] | 103.187% and 97.4239% | 129.375% and 117.264% | 86.5772% and 112.354% | 98.7828% and 96.4286% | 131.189% and 119.936% | 71.8556% and 75.9401%
18 | CNC(=O)c1cc(C(=O)N[C@H]2[C@@H]3COC[C@@H]32)cc2c1O[C@@H](CF)[C@@H]2c1ccccc1 [GSK943] | 114.013% and 124.372% | 80.0063% and 92.9841% | 93.124% and 115.133% | 103.782% and 108.09% | 64.3424% and 103.726% | 87.7458% and 93.3783%
19 | Cc1c(C(=O)Nc2ccc(Oc3ccnc4[nH]cc(-c5ccccc5)c34)c(F)c2)c(=O)n(-c2ccc(F)cc2)n1C | 83.9357% and 96.3695% | 67.8056% and 89.2545% | 102.708% and 102.021% | 105.094% and 114.574% | 202.234% and 105.47% | 155.309% and 109.6%
20 | CO[C@@H](C)c1c(Nc2ccc([C@H](N(C)C(=O)C3CCS(=O)(=O)CC3)C(F)(F)F)cc2)cnc2cc(Cl)nn12 [NVS-MALT1] | 53.942% and 90.6073% | 65.826% and 102.355% | 116.026% and 99.8545% | 97.0711% and 89.225% | 78.0421% and 97.349% | 96.1339% and 95.7573%
21 | COc1cc(C(=O)O)ncc1C#Cc1ccccc1NS(=O)(=O)c1cccc2c(N(C)C)ccnc12 [MSC-0516] | 100.098% and 102.024% | 96.9075% and 85.7761% | 88.3697% and 90.0327% | 92.8274% and 92.794% | 106.133% and 95.2857% | 130.736% and 112.411%
22 | CCNC(=O)c1cc2c(-c3cc(C(C)(C)O)ccc3Oc3c(C)cc(F)cc3C)cn(C)c(=O)c2[nH]1 [ABBV-744] | 111.05% and 99.302% | 81.1787% and 70.2602% | 105.916% and 106.401% | 102.084% and 111.158% | 57.6147% and 40.8037% | 73.5027% and 48.4637%
23 | Cc1c(Oc2ccc(F)cc2)c(OC(C)C)nn1-c1ccc(C2CC2)cn1 [IPP/CNRS-A019] | 86.662% and 99.3522% | 111.4% and 120.615% | 82.2152% and 84.0306% | 88.4065% and 90.7546% | 105.275% and 104.102% | 106.079% and 88.8184%
24 | O=C(Nc1nc2cccc(-c3ccc(CN4CCS(=O)(=O)CC4)cc3)n2n1)C1CC1 [FILGOTINIB] | 93.5364% and 106.162% | 112.473% and 105.09% | 108.054% and 94.216% | 115.207% and 111.119% | 112.727% and 81.0348% | 92.6922% and 97.9922%
25 | O=C(Nc1cccnn1)N1CC(C/C=C/c2cncc(Oc3ccc(C(F)(F)F)cn3)n2)C1 | 109.538% and 100.234% | 99.7432% and 110.394% | 91.4572% and 89.6507% | 96.356% and 80.102% | 144.17% and 108.229% | 154.84% and 92.5885%
26 | Cc1cc(=O)n(C)c2cc(N3C(=O)CC[C@H](NS(=O)(=O)CC(C)C)[C@H]3c3ccc(Cl)cc3)ccc12 | 144.152% and 97.8523% | 176.827% and 107.063% | 117.189% and 110.516% | 129.923% and 112.232% | 117.261% and 101.082% | 140.716% and 110.041%
